This note sets out measurements from patent US12410171B2, “Tropomyosin receptor kinase (TRK) degradation compounds and methods of use” (Cullgen (Shanghai), Inc., priority 2020, dated 2025).

Like-named read-outs stand apart in the source and are kept apart here.

The subject of one assay is KM12 cells. Kind of assay: KM12 cell viability (CellTiter-Glo). Type of assay: cell-based. As to conditions: for IC50: Homo sapiens. In a few lines:
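Three-day exposure of KM12 cells (5000/well, RPMI 1640 with 10% FBS, 37 °C, 5% CO2) to compound dilution series, 3-fold over 8 or 11 points (top 1000 nM in the 8-point format) or 2-fold over 12. CellTiter-Glo readout, with IC50 fitted by nonlinear least-squares regression.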
For orientation: In ATP-based viability assays light output follows the ATP content of the culture.

Another assay deals with T1, TPM3-TRKA fusion protein (Homo sapiens, UniProt P04629).
T1 construct: The resulted chimeric proteins always retain the kinase domain of TRK proteins; TPM3 (fusion partner, N-terminal part of tropomyosin alpha-3, P06753); endogenous in cells; host or cells: KM12 colon cancer cells; the other entry of the earlier key: TPM3 (P06753, Tropomyosin alpha-3 chain)
T1 sequence (P04629 with tags, fused parts or gaps): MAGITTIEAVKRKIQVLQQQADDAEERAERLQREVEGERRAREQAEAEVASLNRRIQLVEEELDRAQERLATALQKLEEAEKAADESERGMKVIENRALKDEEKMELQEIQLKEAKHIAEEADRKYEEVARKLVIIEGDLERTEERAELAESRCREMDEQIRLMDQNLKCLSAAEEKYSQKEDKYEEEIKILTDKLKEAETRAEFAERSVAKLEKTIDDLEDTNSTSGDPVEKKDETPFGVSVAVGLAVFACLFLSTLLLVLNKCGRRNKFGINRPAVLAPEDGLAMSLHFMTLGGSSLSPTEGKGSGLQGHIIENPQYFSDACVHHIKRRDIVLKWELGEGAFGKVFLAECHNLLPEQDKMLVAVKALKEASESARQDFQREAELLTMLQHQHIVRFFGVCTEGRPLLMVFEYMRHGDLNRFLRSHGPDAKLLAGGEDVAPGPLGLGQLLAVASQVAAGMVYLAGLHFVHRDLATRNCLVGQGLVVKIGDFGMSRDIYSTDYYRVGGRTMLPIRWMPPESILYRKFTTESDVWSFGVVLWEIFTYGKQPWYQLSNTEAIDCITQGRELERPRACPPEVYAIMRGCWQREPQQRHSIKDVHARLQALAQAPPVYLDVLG
Kind of assay: TPM3-TRKA fusion protein levels in KM12 cells (Western blot). Conditions: for percent degradation of TPM3-TRKA protein at 0.01 µM: read-out: Degradation (at 10 nM). Type of assay: cell-based. In a few lines:
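TPM3-TRKA levels were assessed by Western blot with chemiluminescent detection and band densitometry, after SDS-PAGE of BCA-normalized RIPA lysates. Before lysis, KM12 cells received DMSO, compounds or matched control compounds at concentrations including 0.1, 1, 10 and 100 nM and 0.4–30 nM. Exposures lasted 4 h, 8–16 h or 16 h.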
In general terms: A western blot detects proteins with antibodies after separation by electrophoresis.

[1] abbreviates: 500 nM, 12-point 2-fold serial dilution, 3 days (FIG. 4A).
[2] abbreviates: 16 h, TPM3-TRKA degradation in KM12 cells at 10 nM compound, category of percentage degradation.
The mark [3] stands for this setting: 72 h, KM12 cell viability, 11-point 3-fold serial dilution, 3 days, CellTiter-Glo, read-out: IC50.
Where [4] appears, read: 16 h, TPM3-TRKA degradation in KM12 cells at 10 nM.

`O=C1CCC(N2C(=O)c3cccc(NCCOCCOCCOCCC(=O)N4CCN(c5cccc(-c6cnc7ccc(N8CCC[C@@H]8c8cccc(F)c8)nn67)n5)CC4)c3C2=O)C(=O)N1` (stereo partly drawn) [CPD-010, 2-(2,6-Dioxopiperidin-3-yl)-4-((2-(2-(2-(3-(4-(6-(6-((R)-2˜ (3-fluorophenyl)pyrrolidin-1-yl)imidazo[1,2-b]pyridazin-3-yl)pyridin-2-yl)piperazin-1-yl)-3-oxopropoxy)ethoxy)ethoxy)ethyl)amino) isoindoline-1,3-dione]: in the assay with KM12 cells (setting [1]), the “viability of KM12 cells” value is reported as “inhibited the viability of KM12 cells”. Also, on TPM3-TRKA fusion protein (setting [2]), the percent degradation of TPM3-TRKA protein at 0.01 µM was in the range of 50 to 80%.

A word on the IC50: it is the point on the concentration scale where inhibition reaches its midpoint. For the molecule `O=C1CCC(N2C(=O)c3cccc(NCCCC(=O)N4CCN(c5ccc(C(=O)Nc6n[nH]c7ccc(Cc8cc(F)cc(F)c8)cc67)c(NC6CCOCC6)c5)CC4)c3C2=O)C(=O)N1` (stereo not drawn) [CPD-053, N-(5-(3,5-Difluorobenzyl)-1H-indazol-3-yl)-4-(4-(4-((2-(2,6-dioxopiperidin-3-yl)-1,3-dioxoisoindolin-4-yl)amino)butanoyl)piperazin-1-yl)-2-((tetrahydro-2H-pyran-4-yl)amino)benzamide], the “viability of KM12 cells” value is “inhibited the viability of KM12 cells” in the assay on KM12 cells (setting [1]) and “significantly inhibited the viability of KM12 cells” with KM12 cells (1000 nM, 8-point 3-fold serial dilution, 3 days (FIG. 4B)). Moreover, the IC50 in the assay on KM12 cells (72 h, KM12 cell viability, CellTiter-Glo, three days treatment, read-out: IC50) was 1.5 nM. Moreover, on TPM3-TRKA fusion protein (setting [2]), the percent degradation of TPM3-TRKA protein at 0.01 µM is > 80%. Further, the TPM3-TRKA protein levels result on TPM3-TRKA fusion protein (KM12 cells, 100 nM, indicated incubation time, Western blot (FIG. 2)) was “rapidly reduced TPM3-TRKA protein levels”.

Consider `O=C1CCC(N2C(=O)c3cccc(NCCOCCOCCOCCC(=O)N4CCN(c5ccc(C(=O)Nc6n[nH]c7ccc(Cc8cc(F)cc(F)c8)cc67)c(NC6CCOCC6)c5)CC4)c3C2=O)C(=O)N1` (stereo not drawn) [CPD-057, N—(S-(3,5-Difluorobenzyl)-1H-indazol-3-yl)-4-(4-(3-(2-(2-(2-((2-(2,6-dioxopiperidin-3-yl)-1,3-dioxoisoindolin-4-yl)amino)ethoxy)ethoxy)ethoxy)propanoyl)piperazin-1-yl)-2-((tetrahydro-2H-pyran-4-yl)amino)benzamide], for which the “viability of KM12 cells” value in the assay on KM12 cells (setting [1]) was “inhibited the viability of KM12 cells”. The percent degradation of TPM3-TRKA protein at 0.01 µM on TPM3-TRKA fusion protein (setting [2]) was > 80%.

Regarding `O=C1CCC(N2C(=O)c3ccc(NCCCC(=O)N4CCC(Nc5cccc(C(=O)Nc6cnn7ccc(N8CCC[C@@H]8c8cc(F)ccc8F)nc67)n5)CC4)cc3C2=O)C(=O)N1` (stereo partly drawn) [CPD-470, N-(5-((R)-2-(2,5-difluorophenyl)pyrrolidin-1-yl)pyrazolo[1,5-a]pyrimidin-3-yl)-6-((1-(4-((2-(2,6-dioxopiperidin-3-yl)-1,3-dioxoisoindolin-5-yl)amino)butanoyl)piperidin-4-yl)amino)picolinamide], in the assay with KM12 cells (setting [3]), the concentration for half-maximal inhibition (IC50) stood at 21 nM. The percent degradation of TPM3-TRKA protein at 0.01 µM on TPM3-TRKA fusion protein (setting [4]) is > 80%.

As for `O=C1CCC(N2C(=O)c3ccc(NCCCCCC(=O)N4CCC(Nc5cccc(C(=O)Nc6cnn7ccc(N8CCC[C@@H]8c8cc(F)ccc8F)nc67)n5)CC4)cc3C2=O)C(=O)N1` (stereo partly drawn) [CPD-471, N-(5-((R)-2-(2,5-difluorophenyl)pyrrolidin-1-yl)pyrazolo[1,5-a]pyrimidin-3-yl)-6-((1-(6-((2-(2,6-dioxopiperidin-3-yl)-1,3-dioxoisoindolin-5-yl)amino)hexanoyl)piperidin-4-yl)amino)picolinamide], the IC50 in the assay with KM12 cells (setting [3]) came out at 19 nM. Moreover, on TPM3-TRKA fusion protein (setting [4]), the percent degradation of TPM3-TRKA protein at 0.01 µM was > 80%.

For `O=C1CCC(N2C(=O)c3ccc(NCCCCCCCC(=O)N4CCC(Nc5cccc(C(=O)Nc6cnn7ccc(N8CCC[C@@H]8c8cc(F)ccc8F)nc67)n5)CC4)cc3C2=O)C(=O)N1` (stereo partly drawn) [CPD-472, N-(5-((R)-2-(2,5-difluorophenyl)pyrrolidin-1-yl)pyrazolo[1,5-a]pyrimidin-3-yl)-6-((1-(8-((2-(2,6-dioxopiperidin-3-yl)-1,3-dioxoisoindolin-5-yl)amino)octanoyl)piperidin-4-yl)amino)picolinamide], the IC50 in the assay with KM12 cells (setting [3]) is 37 nM. In addition, the percent degradation of TPM3-TRKA protein at 0.01 µM on TPM3-TRKA fusion protein (setting [4]) is > 80%.

Turning to `O=C1CCC(N2C(=O)c3ccc(NCCOCCC(=O)N4CCC(Nc5cccc(C(=O)Nc6cnn7ccc(N8CCC[C@@H]8c8cc(F)ccc8F)nc67)n5)CC4)cc3C2=O)C(=O)N1` (stereo partly drawn) [CPD-473, N-(5-((R)-2-(2,5-difluorophenyl)pyrrolidin-1-yl)pyrazolo[1,5-a]pyrimidin-3-yl)-6-((1-(3-(2-((2-(2,6-dioxopiperidin-3-yl)-1,3-dioxoisoindolin-5-yl)amino)ethoxy)propanoyl)piperidin-4-yl)amino)picolinamide], the IC50 in the assay on KM12 cells (setting [3]) was 24 nM. For the same molecule, the percent degradation of TPM3-TRKA protein at 0.01 µM at TPM3-TRKA fusion protein (setting [4]) was > 80%.

As for `O=C1CCC(N2C(=O)c3ccc(NCCOCCOCCC(=O)N4CCC(Nc5cccc(C(=O)Nc6cnn7ccc(N8CCC[C@@H]8c8cc(F)ccc8F)nc67)n5)CC4)cc3C2=O)C(=O)N1` (stereo partly drawn) [CPD-474, N-(5-((R)-2-(2,5-difluorophenyl)pyrrolidin-1-yl)pyrazolo[1,5-a]pyrimidin-3-yl)-6-((1-(3-(2-(2-((2-(2,6-dioxopiperidin-3-yl)-1,3-dioxoisoindolin-5-yl)amino)ethoxy)ethoxy)propanoyl)piperidin-4-yl)amino)picolinamide], the 50% inhibitory concentration (IC50) with KM12 cells (setting [3]) turned out to be 18 nM. In addition, the percent degradation of TPM3-TRKA protein at 0.01 µM at TPM3-TRKA fusion protein (setting [4]) was > 80%.

With `O=C1CCC(N2C(=O)c3ccc(NCCOCCOCCOCCC(=O)N4CCC(Nc5cccc(C(=O)Nc6cnn7ccc(N8CCC[C@@H]8c8cc(F)ccc8F)nc67)n5)CC4)cc3C2=O)C(=O)N1` (stereo partly drawn) [CPD-475, N-(5-((R)-2-(2,5-difluorophenyl)pyrrolidin-1-yl)pyrazolo[1,5-a]pyrimidin-3-yl)-6-((1-(3-(2-(2-(2-((2-(2,6-dioxopiperidin-3-yl)-1,3-dioxoisoindolin-5-yl)amino)ethoxy)ethoxy)ethoxy)propanoyl)piperidin-4-yl)amino)picolinamide], in the assay with KM12 cells (setting [3]), the IC50 was found to be 17 nM. Also, the percent degradation of TPM3-TRKA protein at 0.01 µM at TPM3-TRKA fusion protein (setting [4]) is > 80%.

On to `O=C1CCC(N2C(=O)c3ccc(NCCOCCOCCOCCOCCC(=O)N4CCC(Nc5cccc(C(=O)Nc6cnn7ccc(N8CCC[C@@H]8c8cc(F)ccc8F)nc67)n5)CC4)cc3C2=O)C(=O)N1` (stereo partly drawn) [CPD-476, N-(5-((R)-2-(2,5-difluorophenyl)pyrrolidin-1-yl)pyrazolo[1,5-a]pyrimidin-3-yl)-6-((1-(1-((2-(2,6-dioxopiperidin-3-yl)-1,3-dioxoisoindolin-5-yl)amino)-3,6,9,12-tetraoxapentadecan-15-oyl)piperidin-4-yl)amino)picolinamide], for which the half-inhibitory concentration (IC50) in the assay with KM12 cells (setting [3]) turned out to be 22.4 nM. The percent degradation of TPM3-TRKA protein at 0.01 µM on TPM3-TRKA fusion protein (setting [4]) is > 80%.

On to `O=C1CCC(N2C(=O)c3ccc(NCCOCCOCCOCCOCCOCCC(=O)N4CCC(Nc5cccc(C(=O)Nc6cnn7ccc(N8CCC[C@@H]8c8cc(F)ccc8F)nc67)n5)CC4)cc3C2=O)C(=O)N1` (stereo partly drawn) [CPD-477, N-(5-((R)-2-(2,5-difluorophenyl)pyrrolidin-1-yl)pyrazolo[1,5-a]pyrimidin-3-yl)-6-((1-(1-((2-(2,6-dioxopiperidin-3-yl)-1,3-dioxoisoindolin-5-yl)amino)-3,6,9,12,15-pentaoxaoctadecan-18-oyl)piperidin-4-yl)amino)picolinamide], for which the IC50 in the assay on KM12 cells (setting [3]) came to 51.7 nM. The percent degradation of TPM3-TRKA protein at 0.01 µM at TPM3-TRKA fusion protein (setting [4]) fell in the range of 50 to 80%.

On to `NC(=O)C1CCN(c2cc(CN3CCN(C(=O)CNc4cccc5c4C(=O)N(C4CCC(=O)NC4=O)C5=O)CC3)ccc2NC(=O)c2coc(N3CCOCC3)n2)CC1` (stereo not drawn) [CPD-478, N-(2-(4-carbamoylpiperidin-1-yl)-4-((4-((2-(2,6-dioxopiperidin-3-yl)-1,3-dioxoisoindolin-4-yl)glycyl)piperazin-1-yl)methyl)phenyl)-2-morpholinooxazole-4-carboxamide], for which, in the assay on KM12 cells (KM12, 72 h), half-maximal inhibition (IC50) required 28 nM. Further, on TPM3-TRKA fusion protein (KM12, 16 h), the percent degradation of TPM3-TRKA protein at 0.01 µM is > 80%.

`NC(=O)C1CCN(c2cc(CN3CCN(C(=O)CCNc4cccc5c4C(=O)N(C4CCC(=O)NC4=O)C5=O)CC3)ccc2NC(=O)c2coc(N3CCOCC3)n2)CC1` (stereo not drawn) [CPD-479, N-(2-(4-carbamoylpiperidin-1-yl)-4-((4-(3-((2-(2,6-dioxopiperidin-3-yl)-1,3-dioxoisoindolin-4-yl)amino)propanoyl)piperazin-1-yl)methyl)phenyl)-2-morpholinooxazole-4-carboxamide]: the half-maximal inhibitory concentration (IC50) in the assay on KM12 cells (setting [3]) came to 132 nM. Further, at TPM3-TRKA fusion protein (setting [4]), the percent degradation of TPM3-TRKA protein at 0.01 µM was 50 to 80%.

Turning to `NC(=O)C1CCN(c2cc(CN3CCN(C(=O)CCCNc4cccc5c4C(=O)N(C4CCC(=O)NC4=O)C5=O)CC3)ccc2NC(=O)c2coc(N3CCOCC3)n2)CC1` (stereo not drawn) [CPD-480, N-(2-(4-carbamoylpiperidin-1-yl)-4-((4-(4-((2-(2,6-dioxopiperidin-3-yl)-1,3-dioxoisoindolin-4-yl)amino)butanoyl)piperazin-1-yl)methyl)phenyl)-2-morpholinooxazole-4-carboxamide], the IC50 in the assay with KM12 cells (setting [3]) came to 22 nM. Besides, the percent degradation of TPM3-TRKA protein at 0.01 µM at TPM3-TRKA fusion protein (setting [4]) was > 80%.

Take `NC(=O)C1CCN(c2cc(CN3CCN(C(=O)CCCCNc4cccc5c4C(=O)N(C4CCC(=O)NC4=O)C5=O)CC3)ccc2NC(=O)c2coc(N3CCOCC3)n2)CC1` (stereo not drawn) [CPD-481, N-(2-(4-carbamoylpiperidin-1-yl)-4-((4-(5-((2-(2,6-dioxopiperidin-3-yl)-1,3-dioxoisoindolin-4-yl)amino)pentanoyl)piperazin-1-yl)methyl)phenyl)-2-morpholinooxazole-4-carboxamide]: the concentration for half-maximal inhibition (IC50) with KM12 cells (setting [3]) amounted to 17 nM. The percent degradation of TPM3-TRKA protein at 0.01 µM at TPM3-TRKA fusion protein (setting [4]) is > 80%.
